Data as given in patent publication US9393232B2 (BeiGene, Ltd., priority 2013, dated 2016).
pEC50, pIC50: −log10 of the molar value. Read-outs that look alike come from different tables or passages of the source.

How the values were obtained:
[1] = target: Recombinant human BRD4(1-477) (Homo sapiens (Human), UniProt O60885); experiment: BRD4 TR-FRET biochemical IC50 assay; format: binding; conditions: TR-FRET, tetra-acetylated histone peptide; read-out: BRD4 IC50
[2] = test system: MV4-11; experiment: MV4-11 (3 Days) EC50; format: cell-based

SMILES | pIC50 [1] | other results
Cc1noc(C)c1-c1ccc2c(c1)C(O)(c1ccccc1)C(=O)N2 (single isomer, unassigned) [Compound 1.1a, 5-(3,5-dimethylisoxazol-4-yl)-3-hydroxy-3-phenylindolin-2-one] | 7.46 | pEC50 ([2]; Homo sapiens, 72 h): 7.24
Cc1noc(C)c1-c1ccc2c(c1)C(N)(c1ccccc1)C(=O)N2 (single isomer, unassigned) [Compound 2.2a, 3-amino-5-(3,5-dimethylisoxazol-4-yl)-3-phenylindolin-2-one] | 7.62 | pEC50 [2]: 6.80
Cc1noc(C)c1-c1ccc2c(c1)C(N)(c1ccccc1)C(=O)N2 (single isomer, unassigned) [Compound 2.2b, 3-amino-5-(3,5-dimethylisoxazol-4-yl)-3-phenylindolin-2-one] | 5.44 | pEC50 [2]: < 5.00
Cc1noc(C)c1-c1ccc2c(c1)C(c1ccsc1)(N1CCC[C@@H](O)C1)C(=O)N2 (single isomer, unassigned) [Compound 4.9a] | – | pEC50 ([2]; Homo sapiens, MV4-11, 72 h): 7.27
Cc1noc(C)c1-c1ccc2c(c1)C(c1ccsc1)(N1CCC[C@@H](O)C1)C(=O)N2 (single isomer, unassigned) [Compound 4.9b] | – | pEC50 [2]: 7.41
Cc1noc(C)c1-c1ccc2c(c1)C(c1ccsc1)(N1CCC[C@H](O)C1)C(=O)N2 (single isomer, unassigned) [Compound 4.10a] | – | pEC50 ([2]; Homo sapiens, MV4-11, 72 h): 7.14
Cc1noc(C)c1-c1ccc2c(c1)C(c1ccsc1)(N1CCC[C@H](O)C1)C(=O)N2 (single isomer, unassigned) [Compound 4.10b] | – | pEC50 [2]: 7.25
C=CCCC1(O)C(=O)Nc2ccc(-c3c(C)noc3C)cc21 (centres unmarked) [Compound 1.24, 3-(but-3-enyl)-5-(3,5-dimethylisoxazol-4-yl)-3-hydroxyindolin-2-one] | – | pEC50 ([2]; Homo sapiens, MV4-11, 72 h): 6.03
C=CCCCC1(O)C(=O)Nc2ccc(-c3c(C)noc3C)cc21 (centres unmarked) [Compound 1.25, 5-(3,5-dimethylisoxazol-4-yl)-3-hydroxy-3-(pent-4-enyl)indolin-2-one] | – | pEC50 ([2]; Homo sapiens, MV4-11, 72 h): 5.81
Cc1noc(C)c1-c1ccc2c(c1)C(OCCO)(C1CCCCC1)C(=O)N2 (centres unmarked) [Compound 1.33, 3-Cyclohexyl-5-(3,5-dimethylisoxazol-4-yl)-3-(2-hydroxyethoxy)indolin-2-one] | – | pEC50 ([2]; Homo sapiens, MV4-11, 72 h): 6.51
Cc1noc(C)c1-c1ccc2c(c1)C(N)(c1ccccc1)C(=O)N2 (centres unmarked) [Compound 2.2, 3-amino-5-(3,5-dimethylisoxazol-4-yl)-3-phenylindolin-2-one] | – | pEC50 ([2]; Homo sapiens, MV4-11, 72 h): 6.55
Cc1noc(C)c1-c1ccc2c(c1)C(c1ccccc1)(N1CCCC(O)C1)C(=O)N2 (centres unmarked) [Compound 2.15, 5-(3,5-dimethylisoxazol-4-yl)-3-(3-hydroxypiperidin-1-yl)-3-phenylindolin-2-one] | – | pEC50 ([2]; Homo sapiens, MV4-11, 72 h): 7.02
Cc1noc(C)c1-c1ccc2c(c1)C(c1ccccc1)(N1CCC[C@@H](O)C1)C(=O)N2 (stereo partly drawn) [Compound 2.17, 5-(3,5-dimethylisoxazol-4-yl)-3-((R)-3-hydroxypiperidin-1-yl)-3-phenylindolin-2-one] | – | pEC50 ([2]; Homo sapiens, MV4-11, 72 h): 6.44
Cc1noc(C)c1-c1ccc2c(c1)C(C1CCCCC1)(N1CCN(C)CC1)C(=O)N2 (centres unmarked) [Compound 2.26, 3-cyclohexyl-5-(3,5-dimethylisoxazol-4-yl)-3-(4-methylpieprazin-1-yl)indolin-2-one] | – | pEC50 ([2]; Homo sapiens, MV4-11, 72 h): 6.69
Cc1noc(C)c1-c1ccc2c(c1)C(C1CCCCC1)(N1CCC(O)CC1)C(=O)N2 (centres unmarked) [Compound 2.31, 3-cyclohexyl-5-(3,5-dimethylisoxazol-4-yl)-3-(4-hydroxypiperidin-1-yl)indolin-2-one] | 7.43 | –
Cc1noc(C)c1-c1ccc2c(c1)C(C1CCCCC1)(N1CCCC(O)C1)C(=O)N2 (centres unmarked) [Compound 2.32, 3-cyclohexyl-5-(3,5-dimethylisoxazol-4-yl)-3-(3-hydroxypiperidin-1-yl)indolin-2-one] | 7.22 | –
Cc1noc(C)c1-c1ccc2c(c1)C(C1CCCCC1)(N1CC(O)C1)C(=O)N2 (centres unmarked) [Compound 2.33, 3-cyclohexyl-5-(3,5-dimethylisoxazol-4-yl)-3-(3-hydroxyazetidin-1-yl)indolin-2-one] | 6.92 | –
Cc1noc(C)c1-c1ccc2c(c1)C(C1CCCC1)(N1CCN(C)CC1)C(=O)N2 (centres unmarked) [Compound 2.36, 3-cyclopentyl-5-(3,5-dimethylisoxazol-4-yl)-3-(4-methylpiperazin-1-yl)indolin-2-one] | – | pEC50 ([2]; Homo sapiens, MV4-11, 72 h): 6.22
Cc1noc(C)c1-c1ccc2c(c1)C(N)(C1CCCCC1)C(=O)N2 (centres unmarked) [Compound 2.37, 3-amino-3-cyclohexyl-5-(3,5-dimethylisoxazol-4-yl)indolin-2-one] | 7.03 | –
Cc1noc(C)c1-c1ccc2c(c1)[C@@](N)(C1CCCCC1)C(=O)N2 [Compound 2.37a, (S)-3-amino-3-cyclohexyl-5-(3,5-dimethylisoxazol-4-yl)indolin-2-one] | 7.27 | –
Cc1noc(C)c1-c1ccc2c(c1)C(c1ccccc1)(N1CC[C@@H](NC(=O)OC(C)(C)C)C1)C(=O)N2 (some centres unmarked) [Compound 2.41, Tert-butyl (3r)-1-(5-(3,5-dimethylisoxazol-4-yl)-2-oxo-3-phenylindolin-3-yl)pyrrolidin-3-ylcarbamate] | 6.36 | –

SMILES | pIC50 [1] | other results
Cc1noc(C)c1-c1ccc2c(c1)C(c1ccccc1)(N1CC[C@@H](N)C1)C(=O)N2 (stereo partly drawn) [Compound 2.42, 3-((R)-3-aminopyrrolidin-1-yl)-5-(3,5-dimethylisoxazol-4-yl)-3-phenylindolin-2-one] | 7.57 | –
Cc1noc(C)c1-c1ccc2c(c1)C(c1ccccc1)(N1CCC[C@@H](NC(=O)OC(C)(C)C)C1)C(=O)N2 (some centres unmarked) [Compound 2.43] | 6.29 | –
Cc1noc(C)c1-c1ccc2c(c1)C(c1ccccc1)(N1CCC[C@H](NC(=O)OC(C)(C)C)C1)C(=O)N2 (some centres unmarked) [Compound 2.44, Tert-butyl (3s)-1-(5-(3,5-dimethylisoxazol-4-yl)-2-oxo-3-phenylindolin-3-yl)piperidin-3-ylcarbamate] | 5.96 | –
Cc1noc(C)c1-c1ccc2c(c1)C(c1ccccc1)(N1CCC[C@@H](N)C1)C(=O)N2 (stereo partly drawn) [Compound 2.45, 3-((R)-3-aminopiperidin-1-yl)-5-(3,5-dimethylisoxazol-4-yl)-3-phenylindolin-2-one] | 7.59 | –
CCOC(=O)CN1CCN(C2(c3ccccc3)C(=O)Nc3ccc(-c4c(C)noc4C)cc32)CC1 (centres unmarked) [Compound 2.47, Ethyl 2-(4-(5-(3,5-dimethylisoxazol-4-yl)-2-oxo-3-phenylindolin-3-yl)piperazin-1-yl)acetate] | 7.27 | –
Cc1noc(C)c1-c1ccc2c(c1)C(c1ccccc1)(N1CCN(CCO)CC1)C(=O)N2 (centres unmarked) [Compound 2.48, 5-(3,5-Dimethylisoxazol-4-yl)-3-(4-(2-hydroxyethyl)piperazin-1-yl)-3-phenylindolin-2-one] | 7.10 | –
Cc1noc(C)c1-c1ccc2c(c1)C(c1ccccc1)(N1CCN(CCCO)CC1)C(=O)N2 (centres unmarked) [Compound 2.49, 5-(3,5-Dimethylisoxazol-4-yl)-3-(4-(3-hydroxypropyl)piperazin-1-yl)-3-phenylindolin-2-one] | 7.08 | –
Cc1noc(C)c1-c1ccc2c(c1)C(c1ccccc1)(N1CCC[C@H]1CO)C(=O)N2 (some centres unmarked) [Compound 2.53, 5-(3,5-Dimethylisoxazol-4-yl)-3-((s)-2-(hydroxymethyl)pyrrolidin-1-yl)-3-phenylindolin-2-one] | 7.05 | –
Cc1noc(C)c1-c1ccc2c(c1)C(c1ccccc1)(N1CCC[C@@H]1CO)C(=O)N2 (some centres unmarked) [Compound 2.55, 5-(3,5-Dimethylisoxazol-4-yl)-3-((r)-2-(hydroxymethyl)pyrrolidin-1-yl)-3-phenylindolin-2-one] | 6.96 | –
COC(=O)[C@@H](Cc1cnc[nH]1)NC1(c2ccccc2)C(=O)Nc2ccc(-c3c(C)noc3C)cc21 (stereo partly drawn) [Compound 2.56, (2R)-Methyl 2-(5-(3,5-dimethylisoxazol-4-yl)-2-oxo-3-phenylindolin-3-ylamino)-3-(1h-imidazol-5-yl)propanoate] | 6.59 | –
COC(=O)[C@H](Cc1cnc[nH]1)NC1(c2ccccc2)C(=O)Nc2ccc(-c3c(C)noc3C)cc21 (stereo partly drawn) [Compound 2.57, (2S)-Methyl 2-(5-(3,5-dimethylisoxazol-4-yl)-2-oxo-3-phenylindolin-3-ylamino)-3-(1h-imidazol-5-yl)propanoate] | 7.05 | –
Cc1noc(C)c1-c1ccc2c(c1)C(N)(c1ccc(F)cc1)C(=O)N2 (centres unmarked) [Compound 2.59, 3-amino-5-(3,5-dimethylisoxazol-4-yl)-3-(4-fluorophenyl)indolin-2-one] | 7.01 | –
Cc1noc(C)c1-c1ccc2c(c1)C(CC(=O)O)(c1ccccc1)C(=O)N2 (centres unmarked) [Compound 3.4, 2-(5-(3,5-dimethylisoxazol-4-yl)-2-oxo-3-phenylindolin-3-yl)acetic acid] | 5.21 | –
CC(=O)CC1(O)C(=O)Nc2ccc(-c3c(C)noc3C)cc21 (centres unmarked) [Compound 4.2, 5-(3,5-dimethylisoxazol-4-yl)-3-hydroxy-3-(2-oxopropyl)indolin-2-one] | 6.17 | –
Cc1noc(C)c1-c1ccc2c(c1)C(NCCO)(c1ccsc1)C(=O)N2 (centres unmarked) [Compound 4.3, 5-(3,5-Dimethylisoxazol-4-yl)-3-(2-hydroxyethylamino)-3-(thiophen-3-yl)indolin-2-one] | 7.31 | –
Cc1noc(C)c1-c1ccc2c(c1)C(N)(c1ccsc1)C(=O)N2 (centres unmarked) [Compound 4.4, 3-AMINO-5-(3,5-DIMETHYLISOXAZOL-4-YL)-3-(THIOPHEN-3-YL)INDOLIN-2-ONE] | 6.40 | –
Cc1noc(C)c1-c1ccc2c(c1)C(c1ccsc1)(N1CCC(O)CC1)C(=O)N2 (centres unmarked) [Compound 4.5, 5-(3,5-DIMETHYLISOXAZOL-4-YL)-3-(4-HYDROXYPIPERIDIN-1-YL)-3-(THIOPHEN-3-YL)INDOLIN-2-ONE] | 7.60 | –
Cc1noc(C)c1-c1ccc2c(c1)C(c1ccsc1)(N1CCCC(O)C1)C(=O)N2 (centres unmarked) [Compound 4.8, 5-(3,5-dimethylisoxazol-4-yl)-3-(3-hydroxypiperidin-1-yl)-3-(thiophen-3-yl)indolin-2-one] | – | pEC50 ([2]; Homo sapiens, MV4-11, 72 h): 7.38
Cc1noc(C)c1-c1ccc2c(c1)C(c1ccsc1)C(=O)N2 (centres unmarked) [Compound 4.11, 5-(3,5-Dimethylisoxazol-4-yl)-3-(thiophen-3-yl)indolin-2-one] | 6.92 | –
COc1cc(-c2c(C)noc2C)cc2c1NC(=O)C2(O)c1ccccc1 (centres unmarked) [Compound 5.1, 5-(3,5-Dimethylisoxazol-4-yl)-3-hydroxy-7-methoxy-3-phenylindolin-2-one] | 6.35 | –
